Some test systems named below: OVCAR-3 ovarian; SR leukemia; IGROV1 ovarian; OVCAR-5 ovarian; HCC-2998 colon; NCI-H460 lung; A498 renal; CCRF-CEM leukemia; DU-145 prostate; U251 CNS.
Experiment in all cases: inhibition of tumour cell growth, NCI panel, 48 h

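These data come from cells grown in 96-well plates and exposed to compound for 48 hours at five concentrations. At the GI50, growth is halved. TGI: concentration producing complete growth inhibition.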

On to `CNS(=O)(=O)NNS(=O)(=O)c1ccc(Cl)cc1`, for which the TGI with OVCAR-3 ovarian, in the experiment with SR leukemia, with IGROV1 ovarian, in the experiment on OVCAR-5 ovarian, in the experiment on HCC-2998 colon and with NCI-H460 lung was above 100 µM throughout. Also, the TGI in the experiment with A498 renal and in the experiment with CCRF-CEM leukemia was above 100 µM throughout.

With `CN(CC(N)=O)C(=O)N(CCCl)N=O`, the TGI with OVCAR-3 ovarian, with SR leukemia, in the experiment on IGROV1 ovarian, with OVCAR-5 ovarian, in the experiment with HCC-2998 colon and in the experiment on NCI-H460 lung was above 100 µM throughout. In addition, the TGI in the experiment on A498 renal, in the experiment on CCRF-CEM leukemia, in the experiment on DU-145 prostate and in the experiment on U251 CNS was above 100 µM in each case.

For `O=C(O)/C(Cl)=C(\Cl)C(=O)Nc1ccc(Cl)c(Cl)c1Cl`, the TGI turned out to be 35.5 µM in the experiment with OVCAR-3 ovarian; 70.1 µM in the experiment on SR leukemia; 38.7 µM in the experiment on IGROV1 ovarian; 32.1 µM in the experiment with OVCAR-5 ovarian; 35.1 µM with HCC-2998 colon; 45.9 µM in the experiment with NCI-H460 lung. For the same compound, the results for the TGI in the experiment with A498 renal, in the experiment with CCRF-CEM leukemia and in the experiment on U251 CNS were 95.6 µM, above 100 µM and 34.3 µM, respectively.

Consider `COC(=O)C(C)(C)N=CN(C)C`, for which the TGI in the experiment with OVCAR-3 ovarian, in the experiment with SR leukemia, in the experiment with IGROV1 ovarian, with OVCAR-5 ovarian, in the experiment on HCC-2998 colon and in the experiment with NCI-H460 lung was above 100 µM in each case. Besides, the TGI with A498 renal, in the experiment on CCRF-CEM leukemia and in the experiment with U251 CNS was above 100 µM throughout.

Regarding `O=C(O)COc1c(Cl)cc(Cl)c2cccnc12`, the TGI in the experiment on OVCAR-3 ovarian, in the experiment on SR leukemia, in the experiment with IGROV1 ovarian, in the experiment with OVCAR-5 ovarian, in the experiment on NCI-H460 lung and in the experiment on A498 renal was above 100 µM each time. Also, the TGI in the experiment on CCRF-CEM leukemia, with DU-145 prostate and in the experiment with U251 CNS was above 100 µM throughout.

As to `N/N=C1\CC(=O)NC(=O)N1`, the TGI with OVCAR-3 ovarian, in the experiment with SR leukemia, in the experiment on IGROV1 ovarian, with OVCAR-5 ovarian, in the experiment on NCI-H460 lung and in the experiment with A498 renal was above 100 µM in each case. Further, the TGI in the experiment on CCRF-CEM leukemia, in the experiment with DU-145 prostate and in the experiment with U251 CNS was above 100 µM each time.

For `CC(=O)Oc1ccccc1C(=O)/C=C/c1cccc([N+](=O)[O-])c1`, the GI50 in the experiment with OVCAR-3 ovarian was 2.6 µM; in the experiment with SR leukemia, 2250 nM; in the experiment on OVCAR-5 ovarian, 4.75 µM; with HCC-2998 colon it was 2.3 µM; with NCI-H460 lung, 2.4 µM; with A498 renal, 2.54 µM. Moreover, the GI50 is 3.06 µM with CCRF-CEM leukemia, 4.37 µM with DU-145 prostate and 2.02 µM with U251 CNS. Moreover, the TGI worked out at 6.17 µM in the experiment on OVCAR-3 ovarian; 7.7 µM with SR leukemia; 17.1 µM with OVCAR-5 ovarian; 4.97 µM in the experiment with HCC-2998 colon; 9.4 µM in the experiment on NCI-H460 lung; 17.6 µM in the experiment with A498 renal. Besides, the TGI was above 100 µM with CCRF-CEM leukemia, 15.8 µM in the experiment with DU-145 prostate and 4.78 µM in the experiment on U251 CNS.

Consider `CCOC(=O)C(=O)Nc1cc(Cl)ccc1Cl`, for which the TGI in the experiment with OVCAR-3 ovarian, with SR leukemia, in the experiment with IGROV1 ovarian, in the experiment on OVCAR-5 ovarian, in the experiment on HCC-2998 colon and with NCI-H460 lung was above 100 µM in each case. For the same compound, the TGI in the experiment with A498 renal, with CCRF-CEM leukemia and in the experiment with U251 CNS was above 100 µM in each case.

Regarding `CC1=CC(=O)C(O)C2(C)C1CC(O)C13COC4(C)C(OC(=O)C41)C(O)C23` (stereo unspecified), the GI50 in the experiment on OVCAR-3 ovarian is 19.5 µM; with SR leukemia, 688 nM; in the experiment with IGROV1 ovarian, 12.3 µM; in the experiment with OVCAR-5 ovarian, 20.5 µM; in the experiment on NCI-H460 lung, 5.2 µM; in the experiment with A498 renal it was 18 µM. Further, the figures for the GI50 with CCRF-CEM leukemia, with DU-145 prostate and in the experiment on U251 CNS were 5.79 µM, 4.36 µM and 6.1 µM, respectively. Also, the TGI in the experiment on OVCAR-3 ovarian was 62.9 µM; in the experiment with SR leukemia, 6.46 µM; in the experiment with IGROV1 ovarian, 45.8 µM; in the experiment with OVCAR-5 ovarian it was 78.3 µM; with NCI-H460 lung it was 62.7 µM; in the experiment with A498 renal it was 54.4 µM. The TGI in the experiment on CCRF-CEM leukemia was above 100 µM; in the experiment with DU-145 prostate, 31.6 µM; with U251 CNS it was 31.6 µM.

As to `CCOc1nc(N)nc(C)c1N=Nc1ccc(Cl)cc1`, the TGI in the experiment with OVCAR-3 ovarian was above 100 µM; in the experiment with SR leukemia, 23.9 µM; with IGROV1 ovarian, above 100 µM; in the experiment with OVCAR-5 ovarian, above 100 µM; in the experiment with NCI-H460 lung, above 100 µM; in the experiment on CCRF-CEM leukemia, above 100 µM. Also, the TGI in the experiment on DU-145 prostate and in the experiment on U251 CNS was above 100 µM each time.

As for `CN(C)c1ccc(/C=C2\C=Cc3ccccc32)cc1`, the TGI in the experiment on OVCAR-3 ovarian, in the experiment with SR leukemia, with IGROV1 ovarian, in the experiment with OVCAR-5 ovarian, with HCC-2998 colon and with NCI-H460 lung was above 100 µM in each case. The TGI with A498 renal, in the experiment with CCRF-CEM leukemia and with U251 CNS was above 100 µM in each case.

In the case of `CC(C)c1c2[nH]c3ccccc3c2c(C(C)C)c2[nH]c3ccccc3c12`, the TGI in the experiment with OVCAR-3 ovarian, with SR leukemia, in the experiment on IGROV1 ovarian, in the experiment with OVCAR-5 ovarian, in the experiment on HCC-2998 colon and in the experiment on NCI-H460 lung was above 100 µM throughout. Further, the TGI with A498 renal, with CCRF-CEM leukemia and in the experiment with U251 CNS was above 100 µM in each case.

As to `N#Cc1ccc(N=Cc2c([O-])ccc3ccccc23)cc1.[C-]#[O+].[C-]#[O+].[Ir]`, the GI50 is 4.02 µM in the experiment with OVCAR-3 ovarian; 4170 nM in the experiment with SR leukemia; 14.1 µM in the experiment on IGROV1 ovarian; 21.7 µM in the experiment on OVCAR-5 ovarian; 14.7 µM in the experiment on HCC-2998 colon; 22.5 µM in the experiment with A498 renal. Also, the GI50 with CCRF-CEM leukemia is 1.67 µM; with U251 CNS, 13 µM. Further, the TGI in the experiment on OVCAR-3 ovarian worked out at 15.1 µM; with SR leukemia it was 20.6 µM; in the experiment on IGROV1 ovarian it was 27.9 µM; with OVCAR-5 ovarian it was 36.5 µM; in the experiment with HCC-2998 colon, 27.8 µM; in the experiment with A498 renal it was 37.5 µM. Also, the TGI in the experiment with CCRF-CEM leukemia was found to be 7.1 µM; with U251 CNS, 25.7 µM.

The record behind these values is PubChem BioAssay (NCI).
